Measurements published in patent US10245261B2, “Substituted indol-5-ol derivatives and their therapeutic applications” (NantBioScience, Inc., priority 2013, dated 2019).

How the values were obtained:
Experiment in all cases: KinaseProfiler kinase assay
Assay type in all cases: biochemical
ARK5(h) = ARK5(h) (Homo sapiens, UniProt O60285)
Summary of the method: (§1)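 Using a filter-binding 33P format, reactions initiated by MgATP addition proceeded 40 min at room temperature before a 3% phosphoric acid stop. Filtermats were washed three times in 50 mM phosphoric acid and once in methanol, dried and counted.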

Aurora-C(h) = Aurora-C(h) (Homo sapiens, UniProt Q9UQB9)
Summary of the method: as §1

CK1δ(h) = CK1δ(h) (Homo sapiens, UniProt P48730)
Summary of the method: as §1

CaMKIIγ(h) = CaMKIIγ(h) (Homo sapiens, UniProt Q13555)
Summary of the method: as §1

DDR2(h) = DDR2(h) (Homo sapiens, UniProt Q16832)
Summary of the method: as §1

EGFR(L858R)(h) = EGFR(L858R)(h) (Homo sapiens, UniProt P00533, L858R)
Summary of the method: as §1

ErbB4(h) = ErbB4(h) (Homo sapiens, UniProt Q15303)
Summary of the method: as §1

FGFR2(N549H)(h) = FGFR2(N549H)(h) (Homo sapiens, UniProt P21802, N549H)
Summary of the method: as §1

IR(h) = IR(h) (Homo sapiens, UniProt P06213)
Summary of the method: as §1

MAPK2(h) = MAPK2(h) (Homo sapiens, UniProt P28482)
Summary of the method: as §1

MAPK2(m) = MAPK2(m) (Mus musculus, UniProt P63085)
Summary of the method: as §1

PDGFRα(V561D)(h) = PDGFRα(V561D)(h) (Homo sapiens, UniProt P16234, V561D)
Summary of the method: as §1

[1] = target: PI3 Kinase (p110α(E545K)/p85α)(h) (Homo sapiens, UniProt P42336, E545K)
Summary of the method: as §1

[2] = target: PI3 Kinase (p110α/p85α)(m) (Mus musculus, UniProt P42337)
Summary of the method: as §1

[3] = target: PI3 Kinase (p110β/p85α)(m) (Mus musculus, UniProt Q8BTI9)
Summary of the method: as §1

[4] = target: PI3 Kinase (p110δ/p85α)(m) (Mus musculus, UniProt O35904)
Summary of the method: as §1

PI3KC2γ(h) = PI3KC2γ(h) (Homo sapiens, UniProt O75747)
Summary of the method: as §1

PIP4K2α(h) = PIP4K2α(h) (Homo sapiens, UniProt P48426)
Summary of the method: as §1

PKCη(h) = PKCη(h) (Homo sapiens, UniProt P24723)
Summary of the method: as §1

Rse(h) = Rse(h) (Homo sapiens, UniProt Q06418)
Summary of the method: as §1

SAPK2b(h) = SAPK2b(h) (Homo sapiens, UniProt Q15759)
Summary of the method: as §1

Src(1-530)(h) = target: T1, Src(1-530)(h) (Homo sapiens, UniProt P12931)
T1 construct: Src(1-530)(h)
Summary of the method: as §1

TAK1(h) = TAK1(h) (Homo sapiens, UniProt O43318)
Summary of the method: as §1

TAO1(h) = TAO1(h) (Homo sapiens, UniProt Q7L7X3)
Summary of the method: as §1

TAO2(h) = TAO2(h) (Homo sapiens, UniProt Q9UL54)
Summary of the method: as §1

TGFBR1(h) = TGFBR1(h) (Homo sapiens, UniProt P36897)
Summary of the method: as §1

TSSK1(h) = TSSK1(h) (Homo sapiens, UniProt Q9BXA7)
Summary of the method: as §1

Tie2 (h) = Tie2 (h) (Homo sapiens, UniProt Q02763)
Summary of the method: as §1

Tie2(Y897S)(h) = Tie2(Y897S)(h) (Homo sapiens, UniProt Q02763, Y897S)
Summary of the method: as §1

TrkA(h) = TrkA(h) (Homo sapiens, UniProt P04629)
Summary of the method: as §1

Chain of TAK1(h) (O43318 1-303): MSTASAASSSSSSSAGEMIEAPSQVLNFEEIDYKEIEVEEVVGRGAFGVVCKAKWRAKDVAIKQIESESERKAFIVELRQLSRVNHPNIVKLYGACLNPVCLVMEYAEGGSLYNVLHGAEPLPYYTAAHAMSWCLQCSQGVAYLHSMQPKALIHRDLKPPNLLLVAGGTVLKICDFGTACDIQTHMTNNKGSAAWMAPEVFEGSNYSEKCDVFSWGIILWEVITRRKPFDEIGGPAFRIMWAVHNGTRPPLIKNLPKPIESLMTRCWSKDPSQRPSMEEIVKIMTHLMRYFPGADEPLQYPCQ
Chain of IR(h) (P06213 28-1382): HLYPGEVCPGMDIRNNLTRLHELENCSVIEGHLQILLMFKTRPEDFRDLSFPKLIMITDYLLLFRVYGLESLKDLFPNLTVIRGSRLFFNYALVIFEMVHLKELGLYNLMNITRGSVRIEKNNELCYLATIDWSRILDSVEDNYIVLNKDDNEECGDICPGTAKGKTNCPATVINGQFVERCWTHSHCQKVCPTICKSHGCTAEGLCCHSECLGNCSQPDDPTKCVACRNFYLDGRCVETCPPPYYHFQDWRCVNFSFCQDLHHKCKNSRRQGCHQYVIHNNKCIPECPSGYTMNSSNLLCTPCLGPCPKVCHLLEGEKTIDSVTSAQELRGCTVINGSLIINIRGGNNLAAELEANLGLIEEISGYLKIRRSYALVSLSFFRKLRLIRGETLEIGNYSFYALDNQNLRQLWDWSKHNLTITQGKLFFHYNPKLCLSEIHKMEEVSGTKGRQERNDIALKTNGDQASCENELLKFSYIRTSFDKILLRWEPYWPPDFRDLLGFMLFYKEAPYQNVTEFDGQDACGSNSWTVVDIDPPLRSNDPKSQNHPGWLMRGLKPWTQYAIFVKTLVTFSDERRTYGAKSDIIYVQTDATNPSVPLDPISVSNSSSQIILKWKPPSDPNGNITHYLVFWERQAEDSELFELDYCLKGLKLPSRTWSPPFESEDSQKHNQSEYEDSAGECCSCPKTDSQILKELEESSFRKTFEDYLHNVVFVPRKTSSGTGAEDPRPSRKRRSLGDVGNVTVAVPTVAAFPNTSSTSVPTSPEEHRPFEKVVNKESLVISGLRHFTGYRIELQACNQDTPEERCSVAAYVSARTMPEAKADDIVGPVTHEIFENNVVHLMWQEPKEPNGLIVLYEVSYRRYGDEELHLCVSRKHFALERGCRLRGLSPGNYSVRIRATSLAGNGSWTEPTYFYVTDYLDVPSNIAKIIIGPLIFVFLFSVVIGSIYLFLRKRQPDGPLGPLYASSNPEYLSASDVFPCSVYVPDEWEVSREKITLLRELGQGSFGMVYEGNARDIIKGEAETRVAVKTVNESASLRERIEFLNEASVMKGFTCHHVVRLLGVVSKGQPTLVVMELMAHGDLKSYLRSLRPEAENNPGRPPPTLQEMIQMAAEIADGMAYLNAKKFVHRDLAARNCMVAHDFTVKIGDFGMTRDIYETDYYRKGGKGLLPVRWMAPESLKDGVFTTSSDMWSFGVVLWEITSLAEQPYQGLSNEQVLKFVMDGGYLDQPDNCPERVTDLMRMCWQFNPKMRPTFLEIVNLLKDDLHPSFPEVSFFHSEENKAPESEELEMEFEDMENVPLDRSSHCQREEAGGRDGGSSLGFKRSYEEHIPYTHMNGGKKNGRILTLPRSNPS
Chain of DDR2(h) (Q16832 22-855): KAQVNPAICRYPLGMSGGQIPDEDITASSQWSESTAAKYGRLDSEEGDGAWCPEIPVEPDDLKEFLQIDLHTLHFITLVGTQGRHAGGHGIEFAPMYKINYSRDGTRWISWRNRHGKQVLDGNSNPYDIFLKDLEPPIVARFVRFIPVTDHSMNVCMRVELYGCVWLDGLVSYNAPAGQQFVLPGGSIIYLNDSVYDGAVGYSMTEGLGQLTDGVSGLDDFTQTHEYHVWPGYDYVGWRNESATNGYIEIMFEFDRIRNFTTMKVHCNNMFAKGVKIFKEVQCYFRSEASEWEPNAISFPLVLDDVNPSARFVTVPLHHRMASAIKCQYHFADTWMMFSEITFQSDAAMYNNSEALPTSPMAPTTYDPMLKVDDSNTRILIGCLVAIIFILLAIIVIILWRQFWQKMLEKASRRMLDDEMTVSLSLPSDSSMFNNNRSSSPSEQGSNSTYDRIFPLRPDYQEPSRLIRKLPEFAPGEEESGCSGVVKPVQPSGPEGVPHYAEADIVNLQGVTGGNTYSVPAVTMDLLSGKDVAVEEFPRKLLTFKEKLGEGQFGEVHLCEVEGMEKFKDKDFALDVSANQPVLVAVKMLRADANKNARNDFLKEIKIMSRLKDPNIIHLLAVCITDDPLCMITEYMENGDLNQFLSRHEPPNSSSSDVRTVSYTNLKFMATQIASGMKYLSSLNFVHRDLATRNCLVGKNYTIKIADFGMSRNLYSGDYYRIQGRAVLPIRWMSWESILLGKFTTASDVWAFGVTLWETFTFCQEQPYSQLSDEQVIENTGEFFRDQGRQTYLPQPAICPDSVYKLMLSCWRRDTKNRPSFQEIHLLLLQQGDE
Chain of FGFR2(N549H)(h) (P21802 22-821 N549H): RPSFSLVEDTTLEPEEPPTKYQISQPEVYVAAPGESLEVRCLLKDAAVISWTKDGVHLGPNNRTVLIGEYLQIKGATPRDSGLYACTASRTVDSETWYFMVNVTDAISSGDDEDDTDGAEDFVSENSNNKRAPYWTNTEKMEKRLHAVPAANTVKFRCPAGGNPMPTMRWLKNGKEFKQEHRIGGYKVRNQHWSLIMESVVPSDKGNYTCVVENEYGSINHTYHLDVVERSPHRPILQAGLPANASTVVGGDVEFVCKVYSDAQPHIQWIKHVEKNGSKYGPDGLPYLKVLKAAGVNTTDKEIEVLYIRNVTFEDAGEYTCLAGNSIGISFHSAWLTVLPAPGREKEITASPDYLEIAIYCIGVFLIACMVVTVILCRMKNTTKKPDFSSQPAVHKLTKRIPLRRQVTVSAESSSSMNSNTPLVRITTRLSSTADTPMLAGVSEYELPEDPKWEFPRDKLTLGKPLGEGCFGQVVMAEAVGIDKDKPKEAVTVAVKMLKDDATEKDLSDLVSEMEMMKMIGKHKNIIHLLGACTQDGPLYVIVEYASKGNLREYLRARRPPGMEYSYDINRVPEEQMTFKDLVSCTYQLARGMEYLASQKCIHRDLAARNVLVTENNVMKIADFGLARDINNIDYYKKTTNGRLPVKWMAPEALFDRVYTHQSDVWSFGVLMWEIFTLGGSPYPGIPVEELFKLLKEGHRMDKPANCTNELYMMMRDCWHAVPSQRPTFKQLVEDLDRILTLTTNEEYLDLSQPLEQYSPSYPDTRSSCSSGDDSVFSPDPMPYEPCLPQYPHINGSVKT
Chain of Tie2(Y897S)(h) (Q02763 23-1124 Y897S): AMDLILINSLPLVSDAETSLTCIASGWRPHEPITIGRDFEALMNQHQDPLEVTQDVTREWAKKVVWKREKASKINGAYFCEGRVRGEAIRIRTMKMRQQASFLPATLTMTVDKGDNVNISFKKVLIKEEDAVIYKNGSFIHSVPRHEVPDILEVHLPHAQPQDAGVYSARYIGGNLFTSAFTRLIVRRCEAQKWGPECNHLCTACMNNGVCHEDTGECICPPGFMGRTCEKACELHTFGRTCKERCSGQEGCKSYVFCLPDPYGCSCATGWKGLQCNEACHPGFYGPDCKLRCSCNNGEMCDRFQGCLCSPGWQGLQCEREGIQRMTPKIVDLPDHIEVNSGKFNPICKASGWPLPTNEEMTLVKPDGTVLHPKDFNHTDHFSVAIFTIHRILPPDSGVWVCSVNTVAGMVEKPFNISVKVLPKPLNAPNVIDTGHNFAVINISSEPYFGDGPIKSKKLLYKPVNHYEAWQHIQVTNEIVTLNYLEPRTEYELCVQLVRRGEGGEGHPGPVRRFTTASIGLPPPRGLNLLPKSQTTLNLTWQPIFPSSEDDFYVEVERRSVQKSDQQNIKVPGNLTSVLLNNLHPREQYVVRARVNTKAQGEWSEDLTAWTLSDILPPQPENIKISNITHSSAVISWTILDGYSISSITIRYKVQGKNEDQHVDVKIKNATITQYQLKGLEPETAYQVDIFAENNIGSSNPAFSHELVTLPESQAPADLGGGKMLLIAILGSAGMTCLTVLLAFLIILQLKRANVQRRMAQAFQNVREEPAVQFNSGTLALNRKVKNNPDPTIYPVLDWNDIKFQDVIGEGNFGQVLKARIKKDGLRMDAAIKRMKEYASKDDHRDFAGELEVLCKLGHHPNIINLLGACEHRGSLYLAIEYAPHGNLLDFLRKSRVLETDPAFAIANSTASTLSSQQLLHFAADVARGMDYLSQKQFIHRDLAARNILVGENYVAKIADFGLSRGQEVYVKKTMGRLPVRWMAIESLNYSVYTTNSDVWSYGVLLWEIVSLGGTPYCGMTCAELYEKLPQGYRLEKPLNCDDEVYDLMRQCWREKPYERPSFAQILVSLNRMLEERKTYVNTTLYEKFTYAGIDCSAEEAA
Chain of MAPK2(h) (P28482 whole entry): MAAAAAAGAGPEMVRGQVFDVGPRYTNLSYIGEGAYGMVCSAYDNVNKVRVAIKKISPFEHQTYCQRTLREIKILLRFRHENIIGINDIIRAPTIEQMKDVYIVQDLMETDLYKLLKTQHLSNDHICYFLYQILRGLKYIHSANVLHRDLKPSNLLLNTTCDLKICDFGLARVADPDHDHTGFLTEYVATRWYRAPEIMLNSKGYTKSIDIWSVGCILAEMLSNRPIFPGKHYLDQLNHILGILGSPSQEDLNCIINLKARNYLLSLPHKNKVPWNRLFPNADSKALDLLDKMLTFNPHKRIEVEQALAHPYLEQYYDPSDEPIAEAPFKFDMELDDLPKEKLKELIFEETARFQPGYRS
Chain of Tie2 (h) (Q02763 23-1124): as the sequence (Q02763 23-1124 Y897S) above, with S875Y counted along it

Row | Structure (SMILES) | inhibition at 0.1 µM (ARK5(h)) [%] | inhibition at 0.1 µM (Aurora-C(h)) [%] | inhibition at 0.1 µM (CK1δ(h)) [%] | inhibition at 0.1 µM (CaMKIIγ(h)) [%] | inhibition at 0.1 µM (DDR2(h)) [%] | inhibition at 0.1 µM (EGFR(L858R)(h)) [%] | inhibition at 0.1 µM (ErbB4(h)) [%] | inhibition at 0.1 µM (FGFR2(N549H)(h)) [%] | inhibition at 0.1 µM (IR(h)) [%] | inhibition at 0.1 µM (MAPK2(h)) [%] | inhibition at 0.1 µM (MAPK2(m)) [%] | inhibition at 0.1 µM (PDGFRα(V561D)(h)) [%] | inhibition at 0.1 µM [1] [%] | inhibition at 0.1 µM [2] [%] | inhibition at 0.1 µM [3] [%] | inhibition at 0.1 µM [4] [%] | inhibition at 0.1 µM (PI3KC2γ(h)) [%] | inhibition at 0.1 µM (PIP4K2α(h)) [%] | inhibition at 0.1 µM (PKCη(h)) [%] | inhibition at 0.1 µM (Rse(h)) [%] | other results
1 | Cc1cc2c(F)c(Oc3nc(Nc4cc(C5CC5)[nH]n4)cc(N4CCN(C)CC4)n3)ccc2[nH]1 [Compound 10] | 99 | 54 | -21 | -8 | 80 | -5 | 13 | 100 | 83 | -8 | -16 | 86 | -2 | 1 | 0 | -19 | 27 | 1 | -16 | 3 | inhibition at 0.1 µM (SAPK2b(h)): -2%; inhibition at 0.1 µM (Src(1-530)(h)): 101%; inhibition at 0.1 µM (TAK1(h)): 38%; inhibition at 0.1 µM (TAO1(h)): 24%; inhibition at 0.1 µM (TAO2(h)): 18%; inhibition at 0.1 µM (TGFBR1(h)): 66%; inhibition at 0.1 µM (TSSK1(h)): 4%; inhibition at 0.1 µM (Tie2 (h)): 100%; inhibition at 0.1 µM (Tie2(Y897S)(h)): 91%; inhibition at 0.1 µM (TrkA(h)): 102%
2 | Cc1cc2c(F)c(Oc3nc(Nc4cc(C5CC5)[nH]n4)cc(N4CCNCC4)n3)ccc2[nH]1 [Compound 11, N-(5-cyclopropyl-1H-pyrazol-3-yl)-2-((4-fluoro-2-methyl-1H-indol-5-yl)oxy)-6-(piperazin-1-yl)pyrimidin-4-amine] | 95 | 67 | -3 | 22 | 83 | 23 | -5 | 100 | 84 | -13 | 10 | 72 | 2 | -1 | 1 | 6 | -2 | -4 | -7 | 11 | inhibition at 0.1 µM (SAPK2b(h)): -6%; inhibition at 0.1 µM (Src(1-530)(h)): 101%; inhibition at 0.1 µM (TAK1(h)): 44%; inhibition at 0.1 µM (TAO1(h)): 26%; inhibition at 0.1 µM (TAO2(h)): 16%; inhibition at 0.1 µM (TGFBR1(h)): 47%; inhibition at 0.1 µM (TSSK1(h)): 3%; inhibition at 0.1 µM (Tie2 (h)): 98%; inhibition at 0.1 µM (Tie2(Y897S)(h)): 93%; inhibition at 0.1 µM (TrkA(h)): 100%
